What all share (assay): relative viability (nuclei count vs DMSO), 5 days (fraction); higher = more cells survive
Compound in experiment [1]: C1=CC2=NC=CN=C2C=C1/C=C/3\C(=O)NC(=O)S3 + O=C(c1cc(Cc2n[nH]c(=O)c3ccccc23)ccc1F)N1CCN(C(=O)C2CC2)CC1 [Olaparib] (partner 8 µM)
In a few lines: (§1)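 Relative viability divides the nuclei count in treated wells by that in vehicle wells. Lung cancer cell lines were seeded in 1536-well plates, dosed by pin tool the next day, and fixed and stained after 5 days in one step with final 0.05% Triton X-100, 1% formaldehyde and 1 ug/ml Hoechst. Dosing was a single drug or a fixed anchor-drug dose plus five library-drug doses (not always all listed) in √10 steps, and values are medians of duplicate plates imaged at 4×.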

Compound in experiment [2]: C1=CC2=NC=CN=C2C=C1/C=C/3\C(=O)NC(=O)S3 + CC1(C)CCC(c2ccc(Cl)cc2)=C(CN2CCN(c3ccc(C(=O)NS(=O)(=O)c4ccc(N[C@H](CCN5CCOCC5)CSc5ccccc5)c(S(=O)(=O)C(F)(F)F)c4)cc3)CC2)C1 [Navitoclax] (partner 0.5 µM)
In a few lines: as §1

Compound in experiment [3]: C1=CC2=NC=CN=C2C=C1/C=C/3\C(=O)NC(=O)S3 + CS(=O)(=O)N1CCN(Cc2cc3nc(-c4cccc5[nH]ncc45)nc(N4CCOCC4)c3s2)CC1 [Pictilisib] (partner 1 µM)
In a few lines: as §1

Compound in the experiment “BGJ398 + Dasatinib”: CCN1CCN(c2ccc(Nc3cc(N(C)C(=O)Nc4c(Cl)c(OC)cc(OC)c4Cl)ncn3)cc2)CC1 [BGJ398] + Cc1nc(Nc2ncc(C(=O)Nc3c(C)cccc3Cl)s2)cc(N2CCN(CCO)CC2)n1 [Dasatinib] (partner 0.075 µM)
In a few lines:
as §1

UMC-11: the relative viability is 0.336 in experiment [1] (first compound 0.02 µM); 0.423 in experiment [1] (first compound 0.06325 µM); 0.391 in experiment [1] (first compound 0.2 µM); 0.336 in experiment [1] (first compound 0.6325 µM); 0.379 in experiment [1] (first compound 2 µM); 0.296 in experiment [2] (first compound 0.02 µM). Besides, the relative viability in experiment [2] (first compound 0.06325 µM) is 0.397; in experiment [2] (first compound 0.2 µM), 0.312; in experiment [2] (first compound 0.6325 µM) it was 0.307; in experiment [2] (first compound 2 µM), 0.302; in experiment [3] (first compound 0.02 µM) it was 0.839; in experiment [3] (first compound 0.06325 µM), 0.914. For the same cell line, the relative viability in experiment [3] (first compound 0.2 µM) worked out at 0.882; in experiment [3] (first compound 0.6325 µM), 0.786; in experiment [3] (first compound 2 µM) it was 0.952; in the experiment with BGJ398 + Dasatinib (first compound 0.01 µM) it was 0.463; in the experiment with BGJ398 + Dasatinib (first compound 0.03162 µM), 0.465; with BGJ398 + Dasatinib (first compound 0.1 µM) it was 0.51. Further, the relative viability in the experiment with BGJ398 + Dasatinib (first compound 0.3162 µM) turned out to be 0.454; in the experiment with BGJ398 + Dasatinib (first compound 1 µM) it was 0.443.

The values above are taken from the supplement of paper PMC10307832.
